{"source": "patent US5635594A", "about": "“Gallinacins - antibiotic peptides” (University of California, Los Angeles, priority 1994, dated 1997)", "note": "Where no end group is shown, it is not given here.", "data": [{"tested_on": "Candida albicans strain 820", "test": "ultrasensitive radial diffusion assay in agarose gels, Candida", "type": "cell-based", "details": "underlay agar pH 7.4, overnight incubation, FIG. 5c", "description": "Aliquots of these column fractions were dried by vacuum centrifugation, resuspended in a small volume (approximately 17 μl) of 0.01% HOAc and 5 μl samples were tested for antimicrobial activity against Escherichia coli ML-35, Listeria monocytogenes strain EGD and Candida albicans strain 820, by the ultrasensitive radial diffusion technique described by Lehrer, R. I. et al. J Immunol Meth (1991) 137:167-173. […] A 1 mm diameter clear zone around the sample well after overnight incubation corresponded to 10 units of microbicidal activity.\nThe radial diffusion assay in agarose gels described in Example 1 was also used to test the activity of the purified gallinacins. FIGS. 5a, 5b and 5c show the results against three test organisms in units described as above. Rabbit defensin (NP-1) and human defensin (HNP-1) were used as controls.", "values": [{"substance": "Gal1: 39-residue antimicrobial peptide isolated from chicken neutrophils, six cysteines in three intramolecular disulfide bonds", "antifungal activity against Candida albicans": "effective"}, {"substance": "Gal1α: antimicrobial peptide isolated from chicken neutrophils; differs from Gal1 only in positions 10, 20 and 32", "antifungal activity against Candida albicans": "effective"}, {"substance": "Gal2: 36-residue antimicrobial peptide isolated from chicken neutrophils, six cysteines in three intramolecular disulfide bonds (LFCKGGSCHFGGCPSHLIKVGSCFGFRSCCKWPWNA; not fully specified (residues 3, 8, 13, 23, 29, 30, bridges); also: native peptide: three intramolecular disulfides, pairing not given here)", "antifungal activity against Candida albicans": "relatively poor activity"}]}]}
